Laboratory results published in patent publication US20130115256A1, “METHODS FOR TREATING OR PREVENTING VASCULAR GRAFT FAILURE” (priority 2010, published 2013).

Experiments:
MKK6 = molecular target: T1, MKK6 (Homo sapiens, UniProt P52564); assay: MKK6 radiometric kinase assay; format: biochemical; conditions: MMI-0100 100 μM; remaining kinase activity
T1 construct: purchased Millipore (KinaseProfiler service)
T1 sequence (P52564 1-334): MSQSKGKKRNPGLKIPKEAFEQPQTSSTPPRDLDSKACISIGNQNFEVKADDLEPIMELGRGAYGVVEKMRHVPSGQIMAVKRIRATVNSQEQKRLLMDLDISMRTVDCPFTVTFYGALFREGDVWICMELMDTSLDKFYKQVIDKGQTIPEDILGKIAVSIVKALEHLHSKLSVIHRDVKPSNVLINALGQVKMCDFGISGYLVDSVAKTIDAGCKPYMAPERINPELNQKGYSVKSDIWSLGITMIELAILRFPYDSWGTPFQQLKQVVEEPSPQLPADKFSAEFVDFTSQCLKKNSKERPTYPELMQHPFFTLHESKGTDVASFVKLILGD
From the text: A commercial radiometric assay service was used to test the specificity and potency of MMI-0100 ([…]; SEQ ID NO: 1) by measuring its half maximal inhibitory concentrations (IC50). This quantitative assay measures how much MK2 inhibitor (MMI-0100; […] (SEQ ID NO: 1)) is needed to inhibit 50% of a given biological process or component of a process (i.e., an enzyme, cell, or cell receptor). Specifically, in these assays, a positively charged substrate is phosphorylated with a radiolabeled phosphate group from an ATP if the kinase is not inhibited by an inhibitor peptide. The positively charged substrate then is attracted to a negatively charged filter membrane, quantified with a scintillation counter, and compared to a 100% activity control. ATP concentrations within 15 μM of the apparent Km for ATP were chosen since an ATP concentration near the Km may allow for the kinases to have the same relative amount of phosphorylation activity. The individual conditions for each radiometric assay are as follows.
The reaction was initiated by adding the MgATP. After incubation for 40 minutes at room temperature, 5 μl of the incubation mix was used to initiate the p38MAPK radiometric assay described above.
IC50 values for inhibitor peptides were determined using Millipore's IC50 Profiler Express service. The IC50 value was estimated from a 10-point curve of one-half log dilutions. […]

THP-1 cells = assay: TNF-α and IL-1β production in PMA/LPS-treated THP-1 cells (ELISA); format: cell-based, human
Description: The ability of MMI-0100 ([…]; SEQ ID NO: 1) to inhibit the production of inflammatory cytokines (TNF-α and IL-1β) in vitro was examined using THP-1 cells. Briefly, THP-1 cells were activated with PMA for 24 hours, and treated subsequently with 10 μg of LPS. The amount of inflammatory cytokines (TNF-α and IL-1β, pg/ml) produced in the medium in the presence or absence of increasing concentrations (1 μM, 3 μM, 10 μM, and 30 μM) of MMI-0100 ([…]; SEQ ID NO: 1) was determined by cytokine specific enzyme-linked immunosorbent assay (ELISA). Analysis of inflammatory cytokines (TNF-α and IL-1β) was performed with cytokine-specific ELISA kit (PeproTech, Inc., Rocky Hill, N.J.). The cytokine-specific ELISA employs highly-purified anti-cytokine antibodies (capture antibodies) that are noncovalently adsorbed (“coated”) onto plastic microwell plates. After washings, the immobilized antibodies capture specifically soluble cytokine proteins present in samples applied to the plate. After washing away unbound material, the captured cytokine proteins are detected by biotin-conjugated anti-cytokine antibodies (detection antibodies) followed by an enzyme-labeled avidin or streptavidin reporter. Following addition of a chromogenic (color-developing) substrate-containing solution, the level of colored product generated by the bound, enzyme-linked, detection reagents can be measured spectrophotometrically using an ELISA-plate reader at an appropriate optical density.
In order to prepare plates for ELISA, capture antibodies (anti-TNF-α or anti-IL-1β antibodies) were diluted with PBS to a concentration of 1 μg/ml. 100 μl of each diluted antibody was added immediately to each well of the ELISA plate. […]
The standard was diluted from 2 ng/ml to zero in diluent, and 100 μl of the standard or sample was added immediately to each well in triplicate and incubated at room temperature for at least 2 hours. […] The level of colored product generated by the bound, enzyme-linked, detection reagents was measured spectrophotometrically using an ELISA-plate reader at an appropriate optical density.

[1] = tested on: mouse lung endothelial cells (MLEC); assay: Cell apoptosis analysis (annexin V flow cytometry); format: cell-based; conditions: any dose; 24 hours
Description: The apoptotic effect of MMI-0100 ([…]; SEQ ID NO: 1) on mouse lung endothelial cells (MLEC) was measured at 24 hours after MMI-0100 ([…]; SEQ ID NO: 1) treatment. MLEC were removed from the tissue culture plate by trypsin, and re-suspended at a concentration of 1.0×10^6 cells/ml. Apoptotic cells were detected by AlexaFluor® 488 annexin V/Dead Cell Apoptosis Kit (Invitrogen) using flow cytometry sorting analysis.

YARAAARQARAKALARQLGVAA [MMI-0100]
Percent Activity, MKK6 (MKK6): 50%
IL-1β level in the medium (THP-1 cells; 30 μM MMI-0100, PMA then LPS (stimulated control about 450 pg/ml)): about 100 pg/ml
TNF-α level in the medium (THP-1 cells; 30 μM MMI-0100, PMA then LPS (stimulated control about 1000 pg/ml)): about 300 pg/ml
production of pro-inflammatory cytokines (TNF-α and IL-1β) (THP-1 cells; 1, 3, 10, 30 μM MMI-0100): dose-dependent manner
EC apoptosis [1]: did not induce EC apoptosis
